Here are results for one molecule from patent US20250130239A1, “PROTEIN DEGRADER” (University of Dundee, priority 2021, published 2025).

One data set concerns HEK293 cells. Nature of the data set: CellTiter-Glo cell viability assay, HEK293. The data set is classed as cell-based, human. The conditions noted are these: up to 10 μM; 48 h. A general note: In ATP-based viability assays light output follows the ATP content of the culture.
For another data set, the system named is MV-4-11 cells. Nature of the data set: CellTiter-Glo cell viability assay, MV-4-11. The data set is classed as cell-based, human. The conditions noted are these: up to 10 μM; 24 h. How it is done:
Cell Viability Assay. MV-4-11 cells were plated at a density of 2×10^4 cell per well of a 96 well white-bottom plate, and left to grow overnight in 50 μl of IMDM (Invitrogen, arlsebad, CA, USA) supplemented with 10% (v/v) Fetal bovine serum (FBS) (Thermo Fisher, Waltham, MA, USA) and 1% (v/v) penicillin/streptomycin (pen/strep) (#15140122, Thermo Fisher, Waltham, MA, USA) at 37° C., 5% CO2, and 95% humidity. […] These cells were then left to incubate at 37° C., 5% CO2, and 95% humidity for one day prior to undergoing spectrophotometric analysis. 22RV1 cells were plated at a density of 2×10^4 cell per well of a 96 well white-bottom plate, and left to grow overnight in 100 μL of RPMI-1640 (Invitrogen, Carlsebad, CA, USA) supplemented with 10% (v/v) fetal bovine serum (FBS) (Thermo Fisher, Waltham, MA, USA) and 1% (v/v) penicillin/streptomycin (pen/strep) (#15140122, Thermo Fisher, Waltham, MA, USA) at 37° C., 5% CO2, and 95% humidity. […] Plates were subjected to 2 mins on an orbital shaker to encourage lysis and left for a further 5 mins to reach peak luminescence. Luminescence was then recorded on a BMG Labtech PHERAstar luminescence plate reader with recommended settings. Data extracted from this analysis was analysed with Graphpad Prism (v. 8.2.0, GraphPad) and normalized to the DMSO vehicle control. […]

The next data set concerns the target T1, VHL (VCB protein) (Homo sapiens, UniProt P40337).
T1 construct: N-terminally Hiss-tagged VHL (54-213); His6 (N, cleaved yes); made in house; host or cells: E. coli
Put plainly: Fluorescence polarization competitive binding assay, binary binding. The conditions noted are these: compound alone; displacement of HIF-1a peptide probe; read-out: binary affinity to VHL Kd. Here is the method: Protein Expression and Purification. […] The complex was further purified by anion exchange followed by gel filtration chromatography.
Fluorescence Polarization Binding Assay. […] All components were dissolved from stock solutions using 100 mM Bis-Tris propane, 100 mM NaCl, 1 mM DTT, pH 7.0, to yield a final assay volume of 15 μL. DMSO was added as appropriate to ensure a final concentration of 2% v/v. […] Percentage displacement values were obtained by normalization of controls were plotted against Log[Compound]. IC50 values were determined for each titration using nonlinear regression analysis with Prism (v. 9.1.0, GraphPad). […] Cooperativity values (a) for each PROTAC were calculated using the ratio: α=binary Kd (−bromodomain)/ternary Kd (+bromodomain).
A general note: In fluorescence polarisation assays a small probe gives low polarisation when free and higher when bound to something large.

A further data set addresses T2, BromoTag-Brd2 (Homo sapiens, UniProt O60885+P40337, L387A).
T2 construct: comprising residues 368-440 of human Brd4; Brd2 (endogenous protein, fusion partner in the same polypeptide); eGFP-P2A (upstream marker in the knock-in cassette) (N, cleaved yes); expressed in transfected cells; host or cells: HEK293, heterozygous CRISPR knock-in at the endogenous BRD2 locus
Put plainly: Time-course degradation assay in heterozygous BromoTag-Brd2 HEK293 cells. Type of data set: cell-based. The conditions noted are these: 500 nM. Here is the method: Time-course Degradation Assay. Time-course degradation assays using PROTACs AGB1, AGB2, and AGB3 were performed on the genotype verified heterozygous BromoTag-Brd2 HEK293 cell line. Heterozygous BromoTag-Brd2 HEK293 cells were plated at a density of 5×10^5 cells per well of a 6 healthy plate a day prior to initiation of the Timecourse assay. PROTAC's AGB1 & AGB2 were diluted in DMSO to a concentration of 1 mM prior to being further diluted 1:2000 in 2 mL of DMEM to a concentration of 500 nM per timepoint. PROTAC AGB3 was diluted in DMSO to a concentration of 2 mM prior to being further diluted 1:2000 in 2 mL of DMEM to a concentration of 1 μM per timepoint. Timepoint range was between 0-36 h. Treatment was applied in a staggered fashion to enable all timepoints to be harvested at the same time.
Western Blotting. All cells were harvested on ice with RIPA lysis, and extraction buffer (ThermoFisher Scientific, 89901) supplemented with protease inhibitor cocktail (Merck, 11697498001) and Benzonase® Nuclease (Sigma, E1014) before being store at −20° C. prior to use. Total protein quantity was determined using the BCA protein assay (#23225, Pierce, Rockford, Illinois). Protein concentration was determined using the BCA assay (ThermoFisher Scientific, 23225). Samples were then prepared and loaded onto NuPAGE™ 4-12% Bis-Tris Midi gels (ThermoFisher Scientific, WG1403A), followed by the transfer of the proteins onto nitrocellulose membranes (EMD Millipore). The membranes were blocked for 1 h prior to incubation with the primary antibodies using 5% Milk TBST. Membranes were probed for Brd2 (Abcam, Ab139690, 1:1000), Brd3 (Abcam, Ab50818, 1:4000), Brd4 (Abcam, Ab128874, 1:1000) or our polyclonal Brd4^BD2 L387A antibody. […] All western blots were analysed for band intensities using Image Lab from Bio-Rad (LI-COR, Biosciences). The data extracted from these blots were then plotted and analysed using Prism (v. 8.2.0, GraphPad).

The structures appear in SMILES notation. Some results are limits rather than exact numbers.

Consider `CC[C@@H](C(=O)OCCOCCOCCOCC(=O)N[C@H](C(=O)N1C[C@H](O)C[C@H]1C(=O)NCc1ccc(-c2scnc2C)cc1)C(C)(C)C)[C@@H]1N=C(c2ccc(Cl)cc2)c2c(sc(C)c2C)-n2c(C)nnc21` (single isomer, unassigned) [AGB1 (46)], for which the cytotoxicity result in the data set with HEK293 cells and in the data set on MV-4-11 cells was “lack of cytotoxicity” in each case. Also, on VHL (VCB protein), the Kd is 125 nM. Moreover, the “time to completely degrade BromoTag-Brd2” value at BromoTag-Brd2 was at most 6 h.

What is called Kd is the free concentration of one partner at which half of the binding sites on the other are occupied at equilibrium, for simple one-to-one binding.
